Data published in US8470970B2, “Mammalian sweet and amino acid heterodimeric taste receptors comprising T1R3 and T1R1” (The Regents of the University of California, priority 2001, dated 2013).
One block for each molecule: values may come before it.

Experiments:
[1] = biological target: T1, mouse T1R1+3 (Mus musculus, UniProt Q925D8+Q99PG6); assay: Calcium imaging of HEK-293 cells co-expressing promiscuous G proteins and mouse T1R1+3; type: cell-based; settings: for shift of T1R1+3 dose response in the presence of IMP: 2.5 mM IMP; for activation of T1R1+3: amino acids 50 mM
T1 construct: expressed in transfected cells; host or cells: HEK-293 (PEAKrapid) cells co-expressing promiscuous G proteins
T1 sequence (Q99PG6 20-842 L120P/N244D/D281A/N309Y/P311T/S314P/H418Y): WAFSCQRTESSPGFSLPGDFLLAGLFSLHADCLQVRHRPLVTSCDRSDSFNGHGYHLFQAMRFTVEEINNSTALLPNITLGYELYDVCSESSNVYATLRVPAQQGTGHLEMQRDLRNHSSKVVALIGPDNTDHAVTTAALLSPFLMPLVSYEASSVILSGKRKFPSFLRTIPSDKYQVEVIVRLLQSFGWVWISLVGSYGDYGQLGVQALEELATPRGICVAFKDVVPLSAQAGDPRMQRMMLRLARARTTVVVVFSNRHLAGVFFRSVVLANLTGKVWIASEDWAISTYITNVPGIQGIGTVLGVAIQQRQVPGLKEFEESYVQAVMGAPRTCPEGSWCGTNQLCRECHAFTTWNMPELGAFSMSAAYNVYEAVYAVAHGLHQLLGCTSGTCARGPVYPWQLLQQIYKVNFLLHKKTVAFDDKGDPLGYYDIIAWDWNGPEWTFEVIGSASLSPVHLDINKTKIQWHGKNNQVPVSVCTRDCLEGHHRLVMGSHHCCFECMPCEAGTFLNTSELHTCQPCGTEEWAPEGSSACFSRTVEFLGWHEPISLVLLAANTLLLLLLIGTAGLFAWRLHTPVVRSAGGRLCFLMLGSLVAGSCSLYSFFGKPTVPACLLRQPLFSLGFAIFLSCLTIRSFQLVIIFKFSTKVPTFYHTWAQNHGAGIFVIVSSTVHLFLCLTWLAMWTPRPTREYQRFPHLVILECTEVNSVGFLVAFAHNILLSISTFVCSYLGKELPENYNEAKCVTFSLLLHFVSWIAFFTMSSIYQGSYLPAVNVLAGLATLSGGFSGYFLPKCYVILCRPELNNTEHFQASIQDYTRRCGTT
T1 sequence (Q925D8 21-858): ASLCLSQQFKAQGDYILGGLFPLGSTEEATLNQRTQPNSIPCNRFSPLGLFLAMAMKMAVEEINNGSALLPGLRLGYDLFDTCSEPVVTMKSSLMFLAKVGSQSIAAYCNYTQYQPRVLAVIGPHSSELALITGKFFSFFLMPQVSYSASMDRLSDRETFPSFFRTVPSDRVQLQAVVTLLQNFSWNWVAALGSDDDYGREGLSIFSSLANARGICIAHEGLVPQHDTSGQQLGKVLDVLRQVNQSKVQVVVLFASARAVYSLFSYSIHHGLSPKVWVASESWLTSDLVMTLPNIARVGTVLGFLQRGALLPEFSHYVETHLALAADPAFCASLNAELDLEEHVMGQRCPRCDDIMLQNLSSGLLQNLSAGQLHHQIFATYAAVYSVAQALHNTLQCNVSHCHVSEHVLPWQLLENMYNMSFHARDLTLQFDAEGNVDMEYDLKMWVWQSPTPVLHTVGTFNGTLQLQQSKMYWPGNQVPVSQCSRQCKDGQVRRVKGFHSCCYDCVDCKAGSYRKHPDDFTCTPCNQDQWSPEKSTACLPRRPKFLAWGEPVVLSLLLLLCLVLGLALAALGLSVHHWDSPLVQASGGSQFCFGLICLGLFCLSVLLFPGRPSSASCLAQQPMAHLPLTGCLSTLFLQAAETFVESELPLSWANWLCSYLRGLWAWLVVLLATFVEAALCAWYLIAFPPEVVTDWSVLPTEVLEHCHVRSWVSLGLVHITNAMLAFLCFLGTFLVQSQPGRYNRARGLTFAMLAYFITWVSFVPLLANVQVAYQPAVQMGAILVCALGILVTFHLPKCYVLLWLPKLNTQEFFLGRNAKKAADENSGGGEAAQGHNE
Description: (a): HEK-293 cells co-expressing promiscuous G proteins and heteromeric mouse T1R2+3 or T1R1+3 receptors were stimulated with L- and D-amino acids. […] (b)(c): Quantification of amino-acid responses for T1R2+3(b) and T1R1+3(c). […] Each column represents the mean±s.e.m. of at least ten independent determinations. […] All calcium measurements and quantifications were performed as described in the Methods and Nelson et al., Cell 106:381-390 (2001).
Mouse T1R1 and T1R3 were transfected alone or in combination and tested for stimulation by L-amino acids.
(§1) Cells were grown, maintained and transfected exactly as described earlier (Nelson et al., Cell, 106:381-390 (2001)). […] FURA-2 acetomethyl ester was used to measure intracellular calcium concentration ([Ca^2+]i), and assay conditions were identical to those previously described (Nelson et al., Cell, 106:381-390 (2001)). Responses were measured for 60 s and the fluorescence ratio at wavelengths of 340 and 380 nm (F340/F380) was used to measure [Ca^2+]i. For data analysis, response refers to the number of cells responding in a field of about 300 transfected cells. Cells were counted as responders if F340/F380 increased above 0.27 after addition of tastant. […] Dose-response functions were fitted using the logistical equation. Studies involving taster and non-taster alleles of T1R3 used constructs of complementary DNA coding for T1R3 from C57BL/6 and 129/Sv mice, respectively (Nelson et al., Cell, 106:381-390 (2001); Kitagawa et al., Biochem. Biophys. Res. Cummun., 283:236-242 (2001); Montmayeur et al., Nature Neurosci., 4:492-498 (2001); Max et al., Nature Genet., 28:58-63 (2001); Sainz et al., J. Neurochem., 77:896-903 (2001); Bachmanov et al., Chem. Senses, 26:925-933 (2001)).

[2] = biological target: T2, receptors containing human T1R1 (UniProt Q7RTX1+Q925D8)
T2 sequence (Q7RTX1 21-841): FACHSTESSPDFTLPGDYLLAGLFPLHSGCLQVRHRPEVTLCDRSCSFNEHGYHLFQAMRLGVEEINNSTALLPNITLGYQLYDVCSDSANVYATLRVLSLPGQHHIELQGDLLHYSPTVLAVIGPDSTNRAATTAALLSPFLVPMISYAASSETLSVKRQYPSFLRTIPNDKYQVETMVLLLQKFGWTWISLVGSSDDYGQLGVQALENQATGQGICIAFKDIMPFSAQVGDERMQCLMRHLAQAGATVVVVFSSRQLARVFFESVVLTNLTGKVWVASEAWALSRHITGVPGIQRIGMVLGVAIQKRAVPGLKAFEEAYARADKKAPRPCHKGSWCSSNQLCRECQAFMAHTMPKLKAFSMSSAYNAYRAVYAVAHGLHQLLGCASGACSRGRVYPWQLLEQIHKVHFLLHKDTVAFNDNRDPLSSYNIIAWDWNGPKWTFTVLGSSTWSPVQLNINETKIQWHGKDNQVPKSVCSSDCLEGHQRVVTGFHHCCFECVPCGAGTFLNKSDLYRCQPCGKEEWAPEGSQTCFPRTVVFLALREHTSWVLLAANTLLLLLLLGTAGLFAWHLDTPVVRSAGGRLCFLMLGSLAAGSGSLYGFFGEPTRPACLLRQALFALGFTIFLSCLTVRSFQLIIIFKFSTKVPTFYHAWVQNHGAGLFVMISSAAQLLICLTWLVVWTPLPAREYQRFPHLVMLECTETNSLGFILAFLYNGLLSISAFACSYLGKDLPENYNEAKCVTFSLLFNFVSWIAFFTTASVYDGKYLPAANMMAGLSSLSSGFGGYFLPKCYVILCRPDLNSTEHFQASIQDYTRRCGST
T2 sequence (Q925D8 21-858): T1 sequence (Q925D8 21-858)
Description: as §1

[3] = Behavioral thresholds for detection of sweet tastants in vivo

- activation of T1R1+3 [1]: activating
Compound: C[C@H](N)C(=O)O [Ala, alanine]
- shift of T1R1+3 dose response in the presence of IMP [1]: at least one order of magnitude to the left

Compound: C[C@@H](N)C(=O)O [D-Ala]
- activation of T1R1+3 by D-amino acid in the presence of IMP ([1]; amino acid 50 mM, IMP 2.5 mM): exception

Compound: N[C@@H](CCC(=O)O)C(=O)O [Glu, glutamate]
- shift of T1R1+3 dose response in the presence of IMP [1]: at least one order of magnitude to the left
- sensitivity of cells expressing human T1R1 relative to other amino acids [2]: more than an order of magnitude more sensitive

- activation of T1R1+3 [1]: activates
- activation of T1R1+3 ([1]; listed as glycine): activating
Compound: NCC(=O)O [Gly, glycine]

Compound: NC(CCP(=O)(O)O)C(=O)O [L-AP4]
- potentiation of T1R1+3 response to the tastant by purine nucleotides [1]: greatly potentiated

Compound: N[C@@H](CCC(=O)O)C(=O)[O-].[Na+] [MSG, monosodium L-glutamate]
- potentiation of T1R1+3 response to the tastant by purine nucleotides [1]: greatly potentiated
- activation of receptors containing human T1R1 ([2]; low concentration, FIG. 11c): robustly activates

- activation of T1R1+3 [1]: activating
Compound: N[C@@H](CO)C(=O)O [Ser, serine]
- shift of T1R1+3 dose response in the presence of IMP [1]: at least one order of magnitude to the left

- activation of T1R1+3 [1]: no responses
Compound: N[C@@H](Cc1c[nH]c2ccccc12)C(=O)O [Trp]

Compound: CC1=CC(=O)[N-]S(=O)(=O)O1.[K+] [acesulfame-K]
- in vivo threshold [3]: ~0.5 mM

- activation of T1R1+3 [1]: activating
Compound: NC(=O)CC[C@H](N)C(=O)O [glutamine]

Compound: O=C1NS(=O)(=O)c2ccccc21 [saccharin]
- in vivo threshold [3]: ~0.5 mM

Compound: OC[C@H]1O[C@@](CO)(O[C@H]2O[C@H](CO)[C@@H](O)[C@H](O)[C@H]2O)[C@@H](O)[C@@H]1O [sucrose]
- in vivo threshold [3]: ~20 mM

- activation of T1R1+3 [1]: activating
Compound: C[C@@H](O)[C@H](N)C(=O)O [threonine]
